Key:
PDE4B2 [1] = target: T1, PDE4B2 (Homo sapiens, UniProt Q07343); test: PDE4B2 enzyme experiment (AMP-glo, cAMP substrate); type: biochemical; conditions: for inhibition at 0.01 µM: read-out: PDE4B2 Enzyme Inhibition% @10 nM; for inhibition at 0.1 µM: read-out: PDE4B2 Enzyme Inhibition% @100 nM
T1 construct: expressed in transfected cells; host or cells: Flp-In-293 (Flpin-293-PDE4B2 [sic])

PDE4B2 [2] = target: T1, PDE4B2; test: PDE4B2 cell experiment (cAMP, Eu-cAMP tracer / Ulight-anti-cAMP); type: cell-based; conditions: Flpin-293-PDE4B2 cells; for IC50: Foskolin; for Cell Inhibition% @10 nM / inhibition at 0.01 µM: 10 nM; for Cell Inhibition% @100 nM / inhibition at 0.1 µM: 100 nM; for Cell Inhibition% @1 nM / inhibition at 0.001 µM: 1 nM

T1 sequence (Q07343 1-564 isoform Q07343-2): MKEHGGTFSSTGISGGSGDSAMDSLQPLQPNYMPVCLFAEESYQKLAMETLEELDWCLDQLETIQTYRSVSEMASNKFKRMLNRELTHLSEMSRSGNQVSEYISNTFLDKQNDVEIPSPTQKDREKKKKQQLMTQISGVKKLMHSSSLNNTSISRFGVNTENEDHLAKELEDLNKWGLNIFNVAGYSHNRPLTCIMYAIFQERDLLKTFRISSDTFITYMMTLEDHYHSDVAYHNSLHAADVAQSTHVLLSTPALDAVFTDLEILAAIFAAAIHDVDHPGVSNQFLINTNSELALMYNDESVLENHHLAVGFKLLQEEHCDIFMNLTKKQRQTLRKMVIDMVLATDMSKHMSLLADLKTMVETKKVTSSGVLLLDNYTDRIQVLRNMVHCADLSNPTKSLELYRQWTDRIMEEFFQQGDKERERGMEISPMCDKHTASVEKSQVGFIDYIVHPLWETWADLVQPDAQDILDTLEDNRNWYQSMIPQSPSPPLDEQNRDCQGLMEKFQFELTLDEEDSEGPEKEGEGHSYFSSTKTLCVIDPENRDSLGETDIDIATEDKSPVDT

Structure (SMILES)	Cell Inhibition% @1 nM (PDE4B2 [2])	Cell Inhibition% @10 nM (PDE4B2 [2])	Cell Inhibition% @100 nM (PDE4B2 [2])	further results
Cn1c(=O)c2c(c3ccc(Cl)cc31)CCN(c1nc3c(c(NC4(CO)CCC4)n1)[S@+]([O-])CC3)C2 [Compound 45, (R)-8-chloro-3-(4-((1-(hydroxymethyl)cyclobutyl)amino)-5-oxido-6,7-dihydrothieno[3,2-d]pyrimidin-2-yl)-6-methyl-2,3,4,6-tetrahydrobenzo[c][2,7]naphthyridin-5(1H)-one]	–	–	–	inhibition at 0.01 µM (PDE4B2 [1]): 99.8%; inhibition at 0.1 µM (PDE4B2 [1]): 100%; IC50 (PDE4B2 [2]): 3.99 nM
[O-][S@+]1CCc2nc(N3CC[C@H]4c5ccc(Cl)cc5OC[C@@H]4C3)nc(NC3(CO)CCC3)c21 [Compound 13, (R)-2-((4aS,10bR)-8-chloro-1,4a,5,10b-tetrahydro-2H-chromeno[3,4-c]pyridin-3(4H)-yl)-4-((1-(hydroxymethyl)cyclobutyl)amino)-6,7-dihydrothieno[3,2-d]pyrimidine 5-oxide]	–	–	–	IC50 (PDE4B2 [1]): 6.39 nM; IC50 (PDE4B2 [2]): 562 nM
[O-][S+]1CCc2nc(N3CCc4cnc(Cl)cc4C3)nc(NC3(CO)CCC3)c21 (centres unmarked) [Compound 79]	1.99%	11.19%	59.37%	IC50 (PDE4B2 [1]): 9.19 nM
C[C@H]1c2ccc(Cl)cc2CCN1c1nc2c(c(NC3(CO)CCC3)n1)[S@+]([O-])CC2 [Compound 28, (R)-2-((S)-6-chloro-1-methyl-3,4-dihydroisoquinolin-2(1H)-yl)-4-((1-(hydroxymethyl)cyclobutyl)amino)-6,7-dihydrothieno[3,2-d]pyrimidine 5-oxide]	–	–	–	IC50 (PDE4B2 [1]): 0.68 nM; IC50 (PDE4B2 [2]): 36.3 nM
[O-][S+]1CCc2nc(N3CCc4sccc4C3)nc(NC3(CO)CCC3)c21 (centres unmarked) [Compound 37]	–	–	–	IC50 (PDE4B2 [1]): 2.99 nM; IC50 (PDE4B2 [2]): 89.5 nM
[O-][S+]1CCc2nc(N3CCc4cc(N5CC(F)(F)C5)ccc4C3)nc(NC3(CO)CCC3)c21 (centres unmarked) [Compound 88]	3.67%	28.76%	93.47%	–
Nc1nc2cc(Cl)ccc2c2c1CN(c1nc3c(c(NC4(CO)CCC4)n1)[S+]([O-])CC3)CC2 (centres unmarked) [Compound 102]	-0.08%	35.86%	95.46%	–
[O-][S@+]1CCc2nc(N3Cc4nc5cc(Cl)ccn5c4C3)nc(NC3(CO)CCC3)c21 [Compound 8, (R)-2-(6-chloro-1,3-dihydro-2H-pyrrolo[3',4':4,5]imidazo[1,2-a]pyridin-2-yl)-4-((1-(hydroxymethyl)cyclobutyl)amino)-6,7-dihydrothieno[3,2-d]pyrimidine 5-oxide]	–	–	–	inhibition at 0.01 µM (PDE4B2 [1]): 45%; inhibition at 0.1 µM (PDE4B2 [1]): 94.1%; inhibition at 0.01 µM (PDE4B2 [2]): 3.5%; inhibition at 0.1 µM (PDE4B2 [2]): 15.1%
[O-][S@+]1CCc2nc(N3CC[C@@H]4c5ccncc5OC[C@H]4C3)nc(NC3(CO)CCC3)c21 [Compound 113, (R)-4-((1-(hydroxymethyl)cyclobutyl)amino)-2-((6aR,10aS)-6a,9,10,10-tetrahydro-6H-pyrano[2,3-c:5,4-c']dipyridin-8(7H)-yl)-6,7-dihydrothieno[3,2-d]pyrimidine 5-oxide]	–	–	–	inhibition at 0.001 µM (PDE4B2 [2]): 5.01%; inhibition at 0.01 µM (PDE4B2 [2]): 22.8%; inhibition at 0.1 µM (PDE4B2 [2]): 71.9%
[O-][S@+]1CCc2nc(N3CCc4cc5c(cc4C3)OC(F)(F)O5)nc(NC3(CO)CCC3)c21 [Compound 48, (R)-2-(2,2-difluoro-7,8-dihydro-[1,3]dioxolo[4,5-g]isoquinolin-6(5H)-yl)-4-((1-(hydroxymethyl)cyclobutyl)amino)-6,7-dihydrothieno[3,2-d]pyrimidine 5-oxide]	–	–	–	inhibition at 0.01 µM (PDE4B2 [1]): 87%; inhibition at 0.1 µM (PDE4B2 [1]): 101%; inhibition at 0.01 µM (PDE4B2 [2]): 25.7%; inhibition at 0.1 µM (PDE4B2 [2]): 76.2%
[O-][S+]1CCc2nc(N3CCc4cc(F)c(F)cc4C3)nc(NC3(CO)CCC3)c21 (centres unmarked) [Compound 95]	-4.2%	6.8%	66.7%	–
COc1ccc2c(c1)CCN(c1nc3c(c(NC4(CO)CCC4)n1)[S+]([O-])CC3)CC2 (centres unmarked) [Compound 47]	–	–	–	PDE4B2 Enzyme Inhibition% @10 nM (PDE4B2 [1]): 98.41%; PDE4B2 Enzyme Inhibition% @100 nM (PDE4B2 [1]): 100.06%; IC50 (PDE4B2 [2]): 6.28 nM
[O-][S@+]1CCc2nc(N3CCc4c(Br)csc4C3)nc(NC3(CO)CCC3)c21 [Compound 54, (R)-2-(3-bromo-4,7-dihydrothieno[2,3-c]pyridin-6(5H)-yl)-4-((1-(hydroxymethyl)cyclobutyl)amino)-6,7-dihydrothieno[3,2-d]pyrimidine 5-oxide]	–	–	–	inhibition at 0.001 µM (PDE4B2 [1]; read-out: PDE4B2 Enzyme Inhibition% @1 nM): 9.28%; inhibition at 0.01 µM (PDE4B2 [1]): 58.9%; inhibition at 0.1 µM (PDE4B2 [1]): 96.6%
[O-][S@+]1CCc2nc(N3CCc4c(ccc5[nH]ncc45)C3)nc(NC3(CO)CCC3)c21 [Compound 118, (R)-4-((1-(hydroxymethyl)cyclobutyl)amino)-2-(3,6,8,9-tetrahydro-7H-pyrazolo[4,3-f]isoquinolin-7-yl)-6,7-dihydrothieno[3,2-d]pyrimidine 5-oxide]	–	–	–	inhibition at 0.001 µM (PDE4B2 [2]): 11.1%; inhibition at 0.01 µM (PDE4B2 [2]): 41.7%; inhibition at 0.1 µM (PDE4B2 [2]): 89%
[O-][S@@+]1CCc2nc(N3CCc4nn5cc(Cl)cnc5c4C3)nc(NC3(CO)CCC3)c21 [Compound 3]	–	–	–	IC50 (PDE4B2 [1]): 926 nM
O=[N+]([O-])c1ccc2c(c1)CN(c1nc3c(c(NC4(CO)CCC4)n1)[S+]([O-])CC3)C2 (centres unmarked) [Compound 61]	–	17.7%	55.2%	PDE4B2 Enzyme Inhibition% @10 nM (PDE4B2 [1]): 70.90%; PDE4B2 Enzyme Inhibition% @100 nM (PDE4B2 [1]): 98.20%
Cn1cc2c(n1)CCN(c1nc3c(c(NC4(CO)CCC4)n1)[S+]([O-])CC3)C2 (centres unmarked) [Compound 31]	–	–	–	IC50 (PDE4B2 [1]): 7.42 nM
[O-][n+]1cc2c(c3ccc(Cl)cc31)CCN(c1nc3c(c(NC4(CO)CCC4)n1)[S+]([O-])CC3)C2 (centres unmarked) [Compound 106]	0.41%	21.18%	67.52%	–
O=C1CCCN1c1ccc2c(c1)CCN(c1nc3c(c(NC4(CO)CCC4)n1)[S+]([O-])CC3)C2 (centres unmarked) [Compound 87]	2.90%	31.33%	89.06%	–
[O-][S@+]1CCc2nc(N3CCc4cc(N5CCCC5)cnc4C3)nc(NC3(CO)CCC3)c21 [Compound 184, (R)-4-((1-(hydroxymethyl)cyclobutyl)amino)-2-(3-(pyrrolidin-1-yl)-5,8-dihydro-1,7-naphthyridin-7(6H)-yl)-6,7-dihydrothieno[3,2-d]pyrimidine 5-oxide]	–	–	–	inhibition at 0.001 µM (PDE4B2 [2]): 36.5%; inhibition at 0.01 µM (PDE4B2 [2]): 94.3%; inhibition at 0.1 µM (PDE4B2 [2]): 100%
[O-][S@+]1CCc2nc(N3CC[C@H]4c5ncc(Cl)cc5OC[C@@H]4C3)nc(NC3(CO)CCC3)c21 [Compound 114, (R)-2-((6aS,10aR)-3-chloro-6a,9,10,10-tetrahydro-6H-pyrano[3,2-b:5,4-c']dipyridin-8(7H)-yl)-4-((1-(hydroxymethyl)cyclobutyl)amino)-6,7-dihydrothieno[3,2-d]pyrimidine 5-oxide]	–	–	–	inhibition at 0.001 µM (PDE4B2 [2]): -1.54%; inhibition at 0.01 µM (PDE4B2 [2]): 8.74%; inhibition at 0.1 µM (PDE4B2 [2]): 54.5%
Cn1cc2c(n1)CN(c1nc3c(c(NC4(CO)CCC4)n1)[S+]([O-])CC3)CC2 (centres unmarked) [Compound 30]	–	11.30%	48.00%	–
[O-][S+]1CCc2nc(N3CCc4cc(-c5ncco5)ccc4C3)nc(NC3(CO)CCC3)c21 (centres unmarked) [Compound 84]	32.85%	96.96%	100.72%	–
[O-][S+]1CCc2nc(N3CCc4scnc4C3)nc(NC3(CO)CCC3)c21 (centres unmarked) [Compound 17]	–	–	–	IC50 (PDE4B2 [1]): 471 nM
Cn1nc(Cl)c2c3c(cnc21)CN(c1nc2c(c(NC4(CO)CCC4)n1)[S+]([O-])CC2)CC3 (centres unmarked) [Compound 105]	7.53%	42.53%	93.48%	–
[O-][S+]1CCc2nc(N3CCc4cc(Cl)c(F)cc4C3)nc(NC3(CO)CCC3)c21 (centres unmarked) [Compound 96]	-2.7%	15.7%	84.8%	–

Now from value to compound, other results behind:

Cell Inhibition% @1 nM (PDE4B2 [2])	Cell Inhibition% @10 nM (PDE4B2 [2])	Cell Inhibition% @100 nM (PDE4B2 [2])	Structure (SMILES)	further results
–	69.61%	99.05%	[O-][S+]1CCc2nc(N3CCc4ccc(Br)cc4CC3)nc(NC3(CO)CCC3)c21 (centres unmarked) [Compound 46]	PDE4B2 Enzyme Inhibition% @10 nM (PDE4B2 [1]): 98.91%; PDE4B2 Enzyme Inhibition% @100 nM (PDE4B2 [1]): 100.22%
5.32%	17.32%	61.63%	[O-][S+]1CCc2nc(N3CC[C@H]4c5cnc(Cl)cc5OC[C@@H]4C3)nc(NC3(CO)CCC3)c21 (some centres unmarked) [Compound 117]	–
1.66%	17.36%	86.54%	[O-][S+]1CCc2nc(N3CCC4=C(COc5ccccc54)C3)nc(NC3(CO)CCC3)c21 (centres unmarked) [Compound 97]	–
8.07%	22.21%	81.06%	[O-][S+]1CCc2nc(N3CC[C@@H]4c5ccc(C(F)(F)F)cc5OC[C@H]4C3)nc(NC3(CO)CCC3)c21 (some centres unmarked) [Compound 111]	–
–	29.5%	69.1%	[O-][S+]1CCc2nc(N3Cc4ccc(C(F)(F)F)cc4C3)nc(NC3(CO)CCC3)c21 (centres unmarked) [Compound 62]	PDE4B2 Enzyme Inhibition% @10 nM (PDE4B2 [1]): 83.85%; PDE4B2 Enzyme Inhibition% @100 nM (PDE4B2 [1]): 100.57%
12.30%	54.08%	99.44%	Cc1ccc2c(c1)OC[C@H]1CN(c3nc4c(c(NC5(CO)CCC5)n3)[S+]([O-])CC4)CC[C@H]21 (some centres unmarked) [Compound 112]	–
18.98%	76.13%	100.03%	COc1ccc2c(c1)OC[C@H]1CN(c3nc4c(c(NC5(CO)CCC5)n3)[S+]([O-])CC4)CC[C@H]21 (some centres unmarked) [Compound 110]	–
17.70%	65.40%	97.85%	[O-][S+]1CCc2nc(N3CC[C@@H]4c5ccc(F)cc5OC[C@H]4C3)nc(NC3(CO)CCC3)c21 (some centres unmarked) [Compound 109]	–
7.72%	39.69%	97.73%	[O-][S+]1CCc2nc(N3CC[C@@H]4c5ccc(Br)cc5OC[C@H]4C3)nc(NC3(CO)CCC3)c21 (some centres unmarked) [Compound 115]	–

— patent publication EP4678644A1, “SUBSTITUTED DIHYDROTHIENOPYRIMIDINE COMPOUND, PREPARATION METHOD THEREFOR, AND USE THEREOF” (Shanghai Yidi Biotechnology Co., Ltd., priority 2023, dated 2024)
